Here are results for four molecules from patent US12486273B2 (Hoffmann-La Roche Inc., priority 2019, dated 2025).

Data set [1] concerns the target human TLR9 (Homo sapiens (Human), UniProt Q9NR96). Briefly: HEK293-Blue-hTLR-9 cells assay. It counts as cell-based. The conditions noted are these: HEK293-Blue-hTLR9 cells, ODN2006 stimulation, 20 hrs, SEAP reporter; read-out: HEK/hTLR9 IC50. An excerpt: HEK293-Blue-hTLR-9 Cells Assay:
A stable HEK293-Blue-hTLR-9 cell line was purchased from InvivoGen (Cat. #: hkb-htlr9, San Diego, California, USA). These cells were originally designed for studying the stimulation of human TLR9 by monitoring the activation of NF-κB. A SEAP (secreted embryonic alkaline phosphatase) reporter gene was placed under the control of the IFN-β minimal promoter fused to five NF-κB and AP-1-binding sites. The SEAP was induced by activating NF-κB and AP-via stimulating HEK-Blue hTLR9 cells with TLR9 ligands. Therefore the reporter expression was declined by TLR9 antagonist under the stimulation of a ligand, such as ODN2006 (Cat. #: tlrl-2006-1, Invivogen, San Diego, California, USA), for incubation of 20 hrs. The cell culture supernatant SEAP reporter activity was determined using QUANTI-Blue™ kit (Cat. #: rep-qb1, Invivogen, San Diego, California, USA) at a wavelength of 640 nm, a detection medium that turns purple or blue in the presence of alkaline phosphatase.
(§1) HEK293-Blue-hTLR9 cells were incubated at a density of 250,000˜450,000 cells/mL in a volume of 170 μL in a 96-well plate in Dulbecco's Modified Eagle's medium (DMEM) containing 4.5 g/L glucose, 50 U/mL penicillin, […], […], 2 mM L-glutamine, 10% (v/v) heat-inactivated fetal bovine serum with addition of 20 μL test compound in a serial dilution in the presence of final DMSO at 1% and 10 μL of 20 μM ODN2006 in above DMEM, perform incubation under 37° C. in a CO2 incubator for 20 hrs. Then 20 μL of the supernatant from each well was incubated with 180 μL Quanti-blue substrate solution at 37° C. for 2 h and the absorbance was read at 620-655 nm using a spectrophotometer. The signaling pathway that TLR9 activation leads to downstream NF-κB activation has been widely accepted, and therefore similar reporter assay was modified for evaluating TLR9 antagonist.

For data set [2], the target named is human TLR8 (Homo sapiens (Human), UniProt Q9NR97). Briefly: HEK293-Blue-hTLR-8 cells assay. The data set is classed as cell-based. The note with it: HEK293-Blue-hTLR8 cells, R848 stimulation, 20 hrs, SEAP reporter; read-out: HEK/hTLR8 IC50. The source says: HEK293-Blue-hTLR-8 Cells Assay:
(§2) A stable HEK293-Blue-hTLR-8 cell line was purchased from InvivoGen (Cat. #: hkb-htlr8, San Diego, California, USA). These cells were originally designed for studying the stimulation of human TLR8 by monitoring the activation of NF-κB. A SEAP (secreted embryonic alkaline phosphatase) reporter gene was placed under the control of the IFN-β minimal promoter fused to five NF-κB and AP-1-binding sites. The SEAP was induced by activating NF-κB and AP-1 via stimulating HEK-Blue hTLR8 cells with TLR8 ligands. Therefore the reporter expression was declined by TLR8 antagonist under the stimulation of a ligand, such as R848, for incubation of 20 hrs. The cell culture supernatant SEAP reporter activity was determined using QUANTI-Blue™ kit (Cat. #: rep-Qb1, Invivogen, San Diego, Ca, USA) at a wavelength of 640 nm, a detection medium that turns purple or blue in the presence of alkaline phosphatase.
HEK293-Blue-hTLR8 cells were incubated at a density of 250,000-450,000 cells/mL in a volume of 170 μL in a 96-well plate in Dulbecco's Modified Eagle's medium (DMEM) containing 4.5 g/L glucose, 50 U/mL penicillin, […], […], 2 mM L-glutamine, 10% (v/v) heat-inactivated fetal bovine serum with addition of 20 μL test compound in a serial dilution in the presence of final DMSO at 1% and 10 μL of 60 μM R848 in above DMEM, perform incubation under 37° C. in a CO2 incubator for 20 hrs. Then 20 μL of the supernatant from each well was incubated with 180 μL Quanti-blue substrate solution at 37° C. for […] and the absorbance was read at 620˜655 nm using a spectrophotometer. The signaling pathway that TLR8 activation leads to downstream NF-κB activation has been widely accepted, and therefore similar reporter assay was modified for evaluating TLR8 antagonist.

In data set [3] the target is human TLR7 (Homo sapiens (Human), UniProt Q9NYK1). Nature of the data set: HEK293-Blue-hTLR-7 cells assay. It counts as cell-based. The note with it: HEK293-Blue-hTLR7 cells, R848 stimulation, 20 hrs, SEAP reporter; read-out: HEK/hTLR7 IC50.
From the text: HEK293-BLUE-hTLR-7 CELLS ASSAY:
as §2, with “HEK293-Blue-hTLR-7” for “HEK293-Blue-hTLR-8”, “hkb-htlr7,” for “hkb-htlr8,”, “TLR7” for “TLR8”, “hTLR7” for “hTLR8”, “R848 (Resiquimod),” for “R848,”, “rep-qb1,” for “rep-Qb1,”
as §1, with “HEK293-Blue-hTLR7 cells” for “HEK293-Blue-hTLR9 cells”, “μM R848” for “μM ODN2006”, “2 hrs” for “2 h”, “that TLR7” for “that TLR9”, “evaluating TLR7” for “evaluating TLR9”

A short description of data set [4]: Human microsomal stability assay. It counts as in vitro ADME. The conditions noted are these: human liver microsomes, 1 μM test compound, 37° C., pH 7.4. Here is the method: Human Microsomal Stability Assay
Human liver microsomes (Cat. NO.: 452117, Corning, USA) were preincubated with test compound for 10 minutes at 37° C. in 100 mM potassium phosphate buffer, pH 7.4. The reactions were initiated by adding NADPH regenerating system. The final incubation mixtures contained 1 μM test compound, 0.5 mg/mL liver microsomal protein, 1 mM MgCl2, 1 mM NADP, 1 unit/mL isocitric dehydrogenase and 6 mM isocitric acid in 100 mM potassium phosphate buffer, pH 7.4. After incubation times of 0, 3, 6, 9, 15 and 30 minutes at 37° C., 300 μL of cold ACN (including internal standard) was added to 100 μL incubation mixture to terminate the reaction. Following precipitation and centrifugation, 100 μL supernatant will be taken out and added 300 μL water. The amount of compound remaining in the samples was determined by LC-MS/MS. Controls of no NADPH regenerating system at zero and 30 minutes were also prepared and analyzed. The results were categorized as: low (<7.0 mL/min/kg), medium (7.0-16.2 mL/min/kg) and high (16.2-23.2 mL/min/kg).
(Liver microsomes are vesicles of endoplasmic reticulum, rich in cytochrome P450 enzymes.)

human TLR7, sequence (Q9NYK1 27-1049): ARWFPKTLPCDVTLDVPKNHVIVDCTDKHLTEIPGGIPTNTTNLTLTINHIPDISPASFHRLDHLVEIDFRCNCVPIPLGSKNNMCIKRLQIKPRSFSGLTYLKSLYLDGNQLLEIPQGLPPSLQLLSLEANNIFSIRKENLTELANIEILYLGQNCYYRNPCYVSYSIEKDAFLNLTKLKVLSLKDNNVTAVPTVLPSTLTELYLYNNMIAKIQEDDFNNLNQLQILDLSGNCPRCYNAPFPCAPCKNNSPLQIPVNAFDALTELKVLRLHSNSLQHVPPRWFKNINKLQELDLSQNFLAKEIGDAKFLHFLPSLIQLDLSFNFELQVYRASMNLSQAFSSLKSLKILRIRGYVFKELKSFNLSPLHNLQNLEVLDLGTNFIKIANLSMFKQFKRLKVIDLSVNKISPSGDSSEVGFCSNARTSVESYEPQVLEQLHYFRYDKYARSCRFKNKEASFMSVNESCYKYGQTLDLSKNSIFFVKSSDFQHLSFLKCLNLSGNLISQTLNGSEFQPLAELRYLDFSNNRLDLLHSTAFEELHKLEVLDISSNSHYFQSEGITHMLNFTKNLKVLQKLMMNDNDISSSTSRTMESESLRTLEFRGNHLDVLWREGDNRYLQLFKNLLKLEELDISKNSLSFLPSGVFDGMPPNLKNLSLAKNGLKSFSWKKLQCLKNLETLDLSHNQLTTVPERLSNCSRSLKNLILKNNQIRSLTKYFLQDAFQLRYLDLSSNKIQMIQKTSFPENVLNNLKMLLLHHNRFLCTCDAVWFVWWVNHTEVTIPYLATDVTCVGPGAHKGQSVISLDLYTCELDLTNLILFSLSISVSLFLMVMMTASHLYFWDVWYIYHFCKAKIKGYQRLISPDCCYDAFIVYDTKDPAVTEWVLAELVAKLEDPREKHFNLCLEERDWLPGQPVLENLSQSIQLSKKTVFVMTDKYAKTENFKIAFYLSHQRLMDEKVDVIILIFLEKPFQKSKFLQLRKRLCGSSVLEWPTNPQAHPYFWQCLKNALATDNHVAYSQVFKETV
human TLR8, sequence (Q9NR97 27-1041): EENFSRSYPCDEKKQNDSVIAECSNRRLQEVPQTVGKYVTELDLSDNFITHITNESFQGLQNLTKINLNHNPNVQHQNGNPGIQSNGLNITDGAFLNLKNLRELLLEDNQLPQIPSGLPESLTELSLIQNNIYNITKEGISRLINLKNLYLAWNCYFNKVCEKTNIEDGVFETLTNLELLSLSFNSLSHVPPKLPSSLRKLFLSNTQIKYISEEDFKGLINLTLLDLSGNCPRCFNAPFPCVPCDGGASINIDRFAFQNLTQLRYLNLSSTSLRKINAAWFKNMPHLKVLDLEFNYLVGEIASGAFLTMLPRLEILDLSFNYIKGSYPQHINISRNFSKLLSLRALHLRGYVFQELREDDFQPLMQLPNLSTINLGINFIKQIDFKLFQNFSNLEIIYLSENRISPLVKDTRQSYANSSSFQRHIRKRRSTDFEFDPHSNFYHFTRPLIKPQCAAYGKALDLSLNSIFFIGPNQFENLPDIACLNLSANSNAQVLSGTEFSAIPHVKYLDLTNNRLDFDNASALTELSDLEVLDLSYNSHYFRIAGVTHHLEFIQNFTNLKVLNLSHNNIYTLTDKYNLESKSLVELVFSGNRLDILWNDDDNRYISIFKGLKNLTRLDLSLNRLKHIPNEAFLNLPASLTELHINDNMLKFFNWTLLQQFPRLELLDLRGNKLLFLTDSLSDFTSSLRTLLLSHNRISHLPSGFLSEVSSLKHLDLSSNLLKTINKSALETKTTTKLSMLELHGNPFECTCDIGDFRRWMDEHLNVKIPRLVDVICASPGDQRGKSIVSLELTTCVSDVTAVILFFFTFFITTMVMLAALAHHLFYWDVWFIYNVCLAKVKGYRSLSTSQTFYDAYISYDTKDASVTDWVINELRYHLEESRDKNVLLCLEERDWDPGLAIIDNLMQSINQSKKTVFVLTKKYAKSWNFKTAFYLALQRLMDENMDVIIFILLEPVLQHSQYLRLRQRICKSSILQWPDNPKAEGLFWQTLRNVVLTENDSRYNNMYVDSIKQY
human TLR9, sequence (Q9NR96 26-1032): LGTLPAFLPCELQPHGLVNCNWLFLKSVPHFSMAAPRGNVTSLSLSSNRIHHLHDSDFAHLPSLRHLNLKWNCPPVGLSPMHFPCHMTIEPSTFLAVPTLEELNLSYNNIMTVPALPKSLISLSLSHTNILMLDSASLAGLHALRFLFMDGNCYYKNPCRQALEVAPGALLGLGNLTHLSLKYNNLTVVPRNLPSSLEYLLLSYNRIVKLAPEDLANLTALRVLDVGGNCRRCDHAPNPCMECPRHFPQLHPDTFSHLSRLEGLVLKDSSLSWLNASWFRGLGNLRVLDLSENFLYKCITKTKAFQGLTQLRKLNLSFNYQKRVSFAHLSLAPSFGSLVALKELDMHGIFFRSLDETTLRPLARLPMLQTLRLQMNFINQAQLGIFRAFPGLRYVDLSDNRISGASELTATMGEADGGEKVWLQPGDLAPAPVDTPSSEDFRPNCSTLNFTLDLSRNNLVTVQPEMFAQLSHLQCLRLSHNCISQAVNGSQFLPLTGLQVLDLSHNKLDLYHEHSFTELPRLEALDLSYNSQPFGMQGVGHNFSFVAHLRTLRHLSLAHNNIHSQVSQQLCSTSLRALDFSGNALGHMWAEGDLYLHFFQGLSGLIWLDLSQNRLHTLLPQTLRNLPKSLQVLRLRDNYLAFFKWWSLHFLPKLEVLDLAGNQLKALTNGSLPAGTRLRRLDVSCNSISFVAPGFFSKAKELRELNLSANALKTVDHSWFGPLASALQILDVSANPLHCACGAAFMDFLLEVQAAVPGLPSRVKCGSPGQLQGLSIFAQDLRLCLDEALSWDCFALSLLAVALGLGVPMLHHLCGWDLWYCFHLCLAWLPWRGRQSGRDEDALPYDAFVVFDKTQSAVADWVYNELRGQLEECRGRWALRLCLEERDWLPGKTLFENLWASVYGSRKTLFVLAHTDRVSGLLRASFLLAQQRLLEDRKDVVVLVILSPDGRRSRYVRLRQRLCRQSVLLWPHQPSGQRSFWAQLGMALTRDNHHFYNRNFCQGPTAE

On to `[2H]c1ccc2c(N3C[C@@H]4C[C@H](N5CC(n6ncc7c6CN[C@H](C)C7)C5)CN4[C@H](C)C3)ccc(C#N)c2n1` [Example 22A, 5-[(4R,7S,8aS)-4-methyl-7-[3-[(5R)-5-methyl-4,5,6,7-tetrahydropyrazolo[3,4-c]pyridin-1-yl]azetidin-1-yl]-3,4,6,7,8,8a-hexahydro-1H-pyrrolo[1,2-a]pyrazin-2-yl]-2-deuterio-quinoline-8-carbonitrile], for which the IC50 in data set [1] was found to be 32.1 nM; in data set [2], 14.5 nM; in data set [3], 10.3 nM. Also, the “CL (h)” value in data set [4] amounted to 8.2 mL/min/kg.
`[2H]c1ccc2c(N3C[C@@H]4C[C@H](N5CC6CCC(C5)N6)CN4[C@H](C)C3)ccc(C#N)c2n1` [Example 16, 2-Deuterio-5-[(4R,7S,8aS)-7-(3,8-diazabicyclo[3.2.1]octan-3-yl)-4-methyl-3,4,6,7,8,8a-hexahydro-1H-pyrrolo[1,2-a]pyrazin-2-yl]quinoline-8-carbonitrile]: the IC50 in data set [1] turned out to be 40.9 nM; in data set [2], 4.7 nM; in data set [3], 8.1 nM. Besides, the “CL (h)” value in data set [4] came out at 7.2 mL/min/kg.
For `C[C@@H]1CN(c2ccc(C#N)c3ncccc23)C[C@@H]2C[C@@H](Nc3cc4c(cn3)CCN[C@@H]4C)CN21` [Example 9B, 5-[(4R,7R,8aS)-4-methyl-7-[[(5R)-5-methyl-5,6,7,8-tetrahydro-2,6-naphthyridin-3-yl]amino]-3,4,6,7,8,8a-hexahydro-1H-pyrrolo[1,2-a]pyrazin-2-yl]quinoline-8-carbonitrile], the IC50 in data set [1] is 42.1 nM; in data set [2] it was 4.7 nM; in data set [3] it was 13.3 nM. Moreover, the “CL (h)” value in data set [4] is reported as 9.6 mL/min/kg.
The matching figures for `[2H]c1ccc2c(N3C[C@@H]4C[C@H](n5ncc6c5CNCC6)CN4[C@H](C)C3)ccc(C#N)c2n1` [Example 23A, 2-Deuterio-5-[(4R,7S,8aS)-4-methyl-7-(4,5,6,7-tetrahydropyrazolo[3,4-c]pyridin-1-yl)-3,4,6,7,8,8a-hexahydro-1H-pyrrolo[1,2-a]pyrazin-2-yl]quinoline-8-carbonitrile]: 407 nM, 13.8 nM, 10.5 nM and 8.1 mL/min/kg.
